Source: patent US10975056B2 (GlaxoSmithKline Intellectual Property Development Limited, priority 2016, dated 2021)
Several values for one entry are separate records, joined by “and”; a condition that tells them apart may be missing. Equal entries are not always repeated. Where two headings read alike, the source gives them in different places.

Tests used:
[1] = tested on: erythroid progenitor cells (EPCs); assay: Fetal hemoglobin (HbF) ELISA in day 7 erythroid progenitor cells; type: cell-based, human; conditions: Homo sapiens, Erythroid progenitor cell, HbF ELISA, day 7 EPCs, 5 days; read-out: EPC ELISA (pEC50 category) (converted);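 also: for fetal hemoglobin induction normalized to vehicle-treated cells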
In short: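 Day 7 EPCs from human bone marrow CD34+ cells were plated at 1,000 cells/well in media with 3 U/mL rhEPO. They were exposed to a 22-point dilution ([…]) for 5 days at 37 °C. Lysate HbF was measured by sandwich ELISA (OD450) and normalized to DMSO control wells.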

DNMT1 = DNMT1 (Homo sapiens, UniProt P26358); assay: DNMT1 biochemical activity, breaklight assay and/or SPA assay
[2] = binned activity in either the breaklight or the SPA assay
[3] = binned activity in either the breaklight or the SPA assay, read-out: DNMT1 BioChemical (pIC50 category) (converted)

Sequence of DNMT1 (P26358 whole entry, looked up): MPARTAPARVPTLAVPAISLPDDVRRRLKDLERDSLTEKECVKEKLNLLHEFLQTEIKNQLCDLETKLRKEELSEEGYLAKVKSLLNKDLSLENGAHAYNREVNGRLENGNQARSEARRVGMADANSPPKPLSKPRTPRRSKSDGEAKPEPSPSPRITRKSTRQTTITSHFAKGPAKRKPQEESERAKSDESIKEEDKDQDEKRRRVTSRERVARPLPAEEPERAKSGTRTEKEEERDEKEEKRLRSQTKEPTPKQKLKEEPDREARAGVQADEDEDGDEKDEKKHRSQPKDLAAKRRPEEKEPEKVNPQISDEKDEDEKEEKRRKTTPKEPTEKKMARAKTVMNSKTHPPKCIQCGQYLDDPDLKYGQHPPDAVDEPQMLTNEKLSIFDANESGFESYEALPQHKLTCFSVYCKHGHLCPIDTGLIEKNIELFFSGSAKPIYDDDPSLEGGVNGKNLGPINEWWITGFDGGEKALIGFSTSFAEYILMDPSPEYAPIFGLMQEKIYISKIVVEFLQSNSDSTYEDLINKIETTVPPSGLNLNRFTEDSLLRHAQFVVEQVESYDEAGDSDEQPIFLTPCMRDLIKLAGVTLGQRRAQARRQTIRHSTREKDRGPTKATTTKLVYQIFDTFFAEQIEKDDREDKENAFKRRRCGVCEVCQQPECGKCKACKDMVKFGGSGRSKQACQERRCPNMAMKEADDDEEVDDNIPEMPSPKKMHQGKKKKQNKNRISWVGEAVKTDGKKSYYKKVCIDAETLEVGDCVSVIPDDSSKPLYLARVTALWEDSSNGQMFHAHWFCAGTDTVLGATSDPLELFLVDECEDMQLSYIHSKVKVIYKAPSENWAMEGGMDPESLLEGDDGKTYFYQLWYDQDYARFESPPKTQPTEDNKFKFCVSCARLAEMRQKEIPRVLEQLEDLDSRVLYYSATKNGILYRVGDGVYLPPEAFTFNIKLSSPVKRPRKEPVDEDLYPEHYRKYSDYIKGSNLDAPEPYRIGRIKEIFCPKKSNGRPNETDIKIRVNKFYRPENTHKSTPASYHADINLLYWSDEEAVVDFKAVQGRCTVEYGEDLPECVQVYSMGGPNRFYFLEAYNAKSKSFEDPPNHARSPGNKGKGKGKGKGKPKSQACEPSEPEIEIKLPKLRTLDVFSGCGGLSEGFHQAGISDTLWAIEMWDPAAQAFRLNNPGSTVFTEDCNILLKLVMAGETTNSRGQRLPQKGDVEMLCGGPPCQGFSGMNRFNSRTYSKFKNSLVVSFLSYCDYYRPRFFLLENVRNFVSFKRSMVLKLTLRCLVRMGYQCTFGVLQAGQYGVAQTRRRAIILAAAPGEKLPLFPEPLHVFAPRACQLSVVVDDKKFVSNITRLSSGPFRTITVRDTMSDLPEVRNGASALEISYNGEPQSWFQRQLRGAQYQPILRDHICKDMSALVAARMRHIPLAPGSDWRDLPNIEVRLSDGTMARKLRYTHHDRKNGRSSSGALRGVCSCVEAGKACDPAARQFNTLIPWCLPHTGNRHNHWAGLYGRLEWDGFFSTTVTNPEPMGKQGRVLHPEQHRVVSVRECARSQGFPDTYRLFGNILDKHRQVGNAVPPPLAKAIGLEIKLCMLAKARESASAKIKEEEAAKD

SMILES | EC50 [1] [nM] | DNMT1 BioChemical (pIC50 category) (DNMT1; [2]) | IC50 (DNMT1; [3]) [nM] | IC50 (DNMT1; breaklight assay and/or SPA assay, repeated experimental runs, read-out: average pIC50 against DNMT1 (converted))
CCc1c(C#N)c(SC(C(N)=O)c2ccccc2)nc(N(C)CCNCCOC)c1C#N (stereo not shown) [Example 491, 2-((3,5-dicyano-4-ethyl-6-((2-((2-methoxyethyl)amino)ethyl)(methyl)amino)pyridin-2-yl)thio)-2-phenylacetamide] | < 316 | D (Category D: ≥6.5) |  | 
CCc1c(C#N)c(SC(C(N)=O)c2ccccc2)nc(N(C)CCN(C)C)c1C#N (stereo not shown) [Example 493, 2-((3,5-dicyano-6-((2-(dimethylamino)ethyl)(methyl)amino)-4-ethylpyridin-2-yl)thio)-2-phenylacetamide] | 316 to 1000 | D (Category D: ≥6.5) |  | 
CCc1c(C#N)c(SC(C(N)=O)c2ccccc2)nc(N(C)CCNCCF)c1C#N (stereo not shown) [Example 495, 2-((3,5-dicyano-4-ethyl-6-((2-((2-fluoroethyl)amino)ethyl)(methyl)amino)pyridin-2-yl)thio)-2-phenylacetamide] | 1000 to 31600 | D (Category D: ≥6.5) |  | 
CCc1c(C#N)c(SC(C(N)=O)c2ccccc2)nc(N(C)C2CC(N)C2)c1C#N (stereo not shown) [Example 498, 2-((6-((3-aminocyclobutyl)(methyl)amino)-3,5-dicyano-4-ethylpyridin-2-yl)thio)-2-phenylacetamide] | 316 to 1000 | D (Category D: ≥6.5) |  | 
CCc1c(C#N)c(SCc2ccc(CS(C)(=O)=O)cc2)nc(N2CCC(N)CC2)c1C#N [Example 499, 2-(4-aminopiperidin-1-yl)-4-ethyl-6-((4-((methylsulfonyl)methyl)benzyl)thio)pyridine-3,5-dicarbonitrile] | < 316 | D (Category D: ≥6.5) |  | 
CCc1c(C#N)c(SCc2ccc(N(C)S(C)(=O)=O)cc2)nc(N(C)CCNCCF)c1C#N [Example 500] | 1000 to 31600 | D (Category D: ≥6.5) |  | 
CCc1c(C#N)c(S[C@@H](C(N)=O)c2ccccc2)nc(N2CC[C@@H](N)[C@@H](F)C2)c1C#N [Example 506, (R)-2-((6-((3S,4R)-4-amino-3-fluoropiperidin-1-yl)-3,5-dicyano-4-ethylpyridin-2-yl)thio)-2-phenylacetamide 2,2,2-trifluoroacetate] | < 316 | D (Category D: ≥6.5) |  | 
CCc1c(C#N)c(S[C@@H](C(N)=O)c2ccccc2)nc(N2CC[C@H](N)[C@H](F)C2)c1C#N [Example 509, (R)-2-((6-((3R,4S)-4-amino-3-fluoropiperidin-1-yl)-3,5-dicyano-4-ethylpyridin-2-yl)thio)-2-phenylacetamide • (0.67)2,2,2-trifluoroacetate • (0.33)methanesulfonate] | < 316 | D (Category D: ≥6.5) |  | 
CCc1c(C#N)c(SC(C(N)=O)c2ccccc2)nc(N(C)CCN(CC)CC)c1C#N (stereo not shown) [Example 515, 2-((3,5-dicyano-6-((2-(diethylamino)ethyl)(methyl)amino)-4-ethylpyridin-2-yl)thio)-2-phenylacetamide] | < 316 | D (Category D: ≥6.5) |  | 

The next lines start with the values.

EC50 [1] [nM] | DNMT1 BioChemical (pIC50 category) (DNMT1; [2]) | IC50 (DNMT1; [3]) [nM] | IC50 (DNMT1; breaklight assay and/or SPA assay, repeated experimental runs, read-out: average pIC50 against DNMT1 (converted)) | SMILES
< 316 | D (Category D: ≥6.5) |  |  | CCc1c(C#N)c(SC(C(N)=O)c2ccccc2)nc(N2CCC(N(C)CC(C)(C)OC)CC2)c1C#N (stereo not shown) [Example 492, 2-((3,5-dicyano-4-ethyl-6-(4-((2-methoxy-2-methylpropyl)(methyl)amino)piperidin-1-yl)pyridin-2-yl)thio)-2-phenylacetamide]
< 316 | D (Category D: ≥6.5) |  |  | CCc1c(C#N)c(SC(C(N)=O)c2ccccc2)nc(N(C)CCN2CC[C@@H](O)C2)c1C#N (stereo partly drawn) [Example 494, 2-(3,5-dicyano-4-ethyl-6-((2-((R)-3-hydroxypyrrolidin-1-yl)ethyl)(methyl)amino)pyridin-2-ylthio)-2-phenylacetamide]
< 316 |  | 316 to 1000 | 316 to 1000 nM and 398 nM | CCc1c(C#N)c(SC(C(N)=O)c2ccccc2)nc(N2CCC(N3CCC(F)(F)C3)CC2)c1C#N (stereo not shown) [Example 496, 2-((3,5-dicyano-6-(4-(3,3-difluoropyrrolidin-1-yl)piperidin-1-yl)-4-ethylpyridin-2-yl)thio)-2-phenylacetamide]
1000 to 31600 | D (Category D: ≥6.5) |  |  | CCc1c(C#N)c(SC(C(N)=O)c2ccccc2)nc(N2CCC(NCC(=O)O)CC2)c1C#N (stereo not shown) [Example 497, 2-((1-(6-((2-amino-2-oxo-1-phenylethyl)thio)-3,5-dicyano-4-ethylpyridin-2-yl)piperidin-4-yl)amino)acetic acid]
316 to 1000 | D (Category D: ≥6.5) |  |  | CCc1c(C#N)c(SC(C(N)=O)c2ccccc2)nc(N2CCC(N3CCOCC3)CC2)c1C#N (stereo not shown) [Example 503, 2-((3,5-dicyano-4-ethyl-6-(4-morpholinopiperidin-1-yl)pyridin-2-yl)thio)-2-phenylacetamide]
1000 to 31600 | D (Category D: ≥6.5) |  |  | CCc1c(C#N)c(SC(C(N)=O)c2ccccc2)nc(N2CCN(CCO)C(=O)C2)c1C#N (stereo not shown) [Example 504, 2-((3,5-dicyano-4-ethyl-6-(4-(2-hydroxyethyl)-3-oxopiperazin-1-yl)pyridin-2-yl)thio)-2-phenylacetamide]
< 316 | D (Category D: ≥6.5) |  |  | CCc1c(C#N)c(SC(C(N)=O)c2ccc(F)cc2)nc(N2CCC(N3CCCC3)CC2)c1C#N (stereo not shown) [Example 505, 2-((3,5-dicyano-4-ethyl-6-(4-(pyrrolidin-1-yl)piperidin-1-yl)pyridin-2-yl)thio)-2-(4-fluorophenyl)acetamide]
< 316 | D (Category D: ≥6.5) |  |  | CCc1c(C#N)c(SC(C(N)=O)c2ccccc2)nc(N2CCC(NC)C(F)C2)c1C#N (stereo not shown) [Example 507, 2((3,5-dicyano-4-ethyl-6-(3-fluoro-4-(methylamino)piperidin-1-yl)pyridin-2-yl)thio)-2-phenylacetamide]
< 316 | D (Category D: ≥6.5) |  |  | CCc1c(C#N)c(SC(C(N)=O)c2ccccc2)nc(N2CCC(NCCOC)C(F)C2)c1C#N (stereo not shown) [Example 510, 2((3,5-dicyano-4-ethyl-6-(3-fluoro-4-((2-methoxyethyl)amino)piperidin-1-yl)pyridin-2-yl)thio)-2-phenylacetamide]
< 316 | D (Category D: ≥6.5) |  |  | CCc1c(C#N)c(SC(C(N)=O)c2ccccc2)nc(N(C)CCN2CCCC2)c1C#N (stereo not shown) [Example 511, 2-((3,5-dicyano-4-ethyl-6-(methyl(2-(pyrrolidin-1-yl)ethyl)amino)pyridin-2-yl)thio)-2-phenylacetamide]
< 316 | D (Category D: ≥6.5) |  |  | CCc1c(C#N)c(SC(C(N)=O)c2ccccc2)nc(N2CCC(CN(C)C)C2)c1C#N (stereo not shown) [Example 512, 2-((3,5-dicyano-6-(3-((dimethylamino)methyl)pyrrolidin-1-yl)-4-ethylpyridin-2-yl)thio)-2-phenylacetamide]
< 316 |  | < 316 |  | CCc1c(C#N)c(SC(C(N)=O)c2ccc(F)cc2)nc(N2CCC(NCC(C)(C)O)CC2)c1C#N (stereo not shown) [Example 513, 2-((3,5-dicyano-4-ethyl-6-(4-((2-hydroxy-2-methylpropyl)amino)piperidin-1-yl)pyridin-2-yl)thio)-2-(4-fluorophenyl)acetamide]
